Laboratory results: US7557137B2, “Gamma-lactams as beta-secretase inhibitors” (Bristol-Myers Squibb Company, priority 2002, dated 2009)

Biological target: T1, BACE enzyme (Homo sapiens, UniProt P56817)
T1 construct: the catalytic domain, appended by a C-terminal poly-histidine tag, is secreted out into the cellular medium; made in house; host or cells: Drosophila melanogaster S2 cells
Assay: BACE enzyme inhibition, fluorescence-quenched peptide substrate MCA-EVNLDAEFK(DNP)
Format: biochemical
Settings: 50 mM acetate, pH 4.5, 0.25 mg/ml bovine serum albumin, 2.5% DMSO; read-out: Activity Rating (based on IC50 values)
From the text: There are a number of methods by which inhibitors of the BACE enzyme can be identified experimentally. The enzyme can be obtained from membrane samples from natural tissues or cultured cells or can be expressed recombinantly in a host cell by well known methods of molecular biology. […] The enzymatic activity and/or ligand binding capability of the enzyme can be assessed within these membrane samples, or the enzyme can be purified to varying extents. As an illustrative example, the nucleic acid sequence encoding the pro and catalytic domains of human BACE can be appended on the 5′ end with an untranslated and signal sequence from the gene for acetylcholinesterase, and on the 3′ end with a sequence encoding a poly-histidine tag. This cDNA can then be expressed in Drosophila melanogaster S2 cells in which the signal and pro sequences of the transcribed/translated protein are removed by cellular proteases and the catalytic domain, appended by a C-terminal poly-histidine tag, is secreted out into the cellular medium. The enzyme can then be purified from the culture medium by nickel affinity chromatography by methods well known to those trained in the art [Mallender, W. et al., (2001) “Characterization of recombinant, soluble beta-secretase from an insect cell expression system.” Mol. Pharmacol. 59: 619-626]. Similar strategies for expressing and purifying various forms of BACE in bacterial, mammalian and other cell types would be known to one skilled in the art.
The enzyme thus obtained can be put in contact with a test compound and with an appropriate substrate on which enzyme-mediated peptide bond hydrolysis is known to occur. The ability of the test compound to diminish the rate of substrate hydrolysis can then be quantified as a measure of inhibition potency. Appropriate substrates can be prepared as peptides, proteins, or chemically modified versions of peptides or proteins, that contain an amino acid sequence that is recognized as a substrate by the enzyme. For example, the amino acid sequence immediately proximal to the beta-cleavage site within Swedish mutant APP is known to be recognized as a substrate for BACE. […] Longer peptide and protein substrates can also be designed by extending the amino acid composition on the N-terminal, the C-terminal, or both ends.
In one known application of (SEQ. ID. NO.:1), X is a 7-methoxycoumarin-4-acetyl (MCA) group and Y is a dinitrophenyl (DNP) group [Marcinkeviciene, J. et al., (2001) “Mechanism of inhibition of beta-site amyloid precursor protein-cleaving enzyme (BACE) by a statine-based peptide.” J. Biol. Chem. 276: 23790-23794]. When this peptide is intact, the natural fluorescence of the MCA group is quenched by its proximity to the DNP group. […] The increase in fluorescence intensity that accompanies enzyme-mediated peptide hydrolysis can be measured as a function of time to quantify the velocity of enzyme catalysis. In a typical assay system the BACE enzyme is diluted into a buffer system composed of 50 mM acetate, pH 4.5 containing 0.25 mg/ml bovine serum albumin. To this is added neat dimethyl sulfoxide (DMSO) or a stock solution of test compound dissolved in DMSO so that the final amount of DMSO in all assays is held constant at 2.5% (v:v). The enzymatic reaction is then initiated by addition of a stock solution of the substrate peptide to a known concentration. The fluorescence increase with time after substrate addition is monitored with an appropriate fluorescence detection instrument, such as a microplate reader or spectrofluorometer. The slope of the signal vs. time plot (progress curve) for samples to which only DMSO was added is taken as a measure of the uninhibited velocity and represents 100% enzymatic activity.

T1 sequence (P56817 75-416 limits assumed): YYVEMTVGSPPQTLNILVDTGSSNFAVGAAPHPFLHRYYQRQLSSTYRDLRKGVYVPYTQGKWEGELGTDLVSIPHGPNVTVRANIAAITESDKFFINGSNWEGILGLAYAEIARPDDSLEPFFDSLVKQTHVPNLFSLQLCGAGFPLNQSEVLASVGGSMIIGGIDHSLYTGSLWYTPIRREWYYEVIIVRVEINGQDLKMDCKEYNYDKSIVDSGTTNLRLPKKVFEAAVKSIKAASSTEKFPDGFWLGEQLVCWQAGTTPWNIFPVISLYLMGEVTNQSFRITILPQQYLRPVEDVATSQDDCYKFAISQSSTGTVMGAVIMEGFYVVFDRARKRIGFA

SMILES: CCC(=O)N[C@]1([C@@H](C)CC)CCN([C@@H](CCc2ccccc2)C(=O)N[C@@H](Cc2ccccc2)[C@H](O)CNCc2cccc(OC)c2)C1=O [Example 10, (2S)-2-(3(S)-propionylamino-3-((S)-sec-butyl)-2-oxo-pyrrolidin-1-yl)-N-[(1S,2R)-1-benzyl-2-hydroxy-3-(3-methoxy-benzylamino)-propyl]-4-phenyl-butyramide]
- IC50: < 0.1 µM
